Tests used:
Assay type in all cases: in vivo
[1] = system: blackgrass (Alopecurus myosuroides); assay: Test A greenhouse herbicide test, postemergence; details: for Plant response rating, Blackgrass: 125 g ai/ha, 0 to 100 scale where 0 is no effect and 100 is complete control; for Blackgrass plant response rating: 500 g ai/ha, 0 to 100 scale, 0 is no effect, 100 is complete control
From the text: (§1) At the same time, plants selected from these crop and weed species and also blackgrass (Alopecurus myosuroides), and galium (catchweed bedstraw, Galium aparine) were planted in pots containing the same blend of loam soil and sand and treated with postemergence applications of test chemicals formulated in the same manner. Plants ranged in height from 2 to 10 cm and were in the one- to two-leaf stage for the postemergence treatment. Treated plants and untreated controls were maintained in a greenhouse for approximately 10 d, after which time all treated plants were compared to untreated controls and visually evaluated for injury. Plant response ratings, summarized in Table A, are based on a 0 to 100 scale where 0 is no effect and 100 is complete control. A dash (-) response means no test result.

[2] = system: galium (catchweed bedstraw, Galium aparine); assay: Test A greenhouse herbicide test, postemergence; details: for Plant response rating, Galium: 125 g ai/ha, 0 to 100 scale where 0 is no effect and 100 is complete control; for Galium plant response rating: 500 g ai/ha, 0 to 100 scale, 0 is no effect, 100 is complete control
From the text: as §1

[3] = system: kochia (Kochia scoparia); assay: Test A greenhouse herbicide test, pre- and postemergence
From the text: (§2) Seeds of plant species selected from barnyardgrass (Echinochloa crus-galli), kochia (Kochia scoparia), ragweed (common ragweed, Ambrosia elatior), ryegrass, Italian (Italian ryegrass, Lolium multiflorum), crabgrass, large (large crabgrass, Digitaria sanguinalis), foxtail, giant (giant foxtail, Setaria faberii), momingglory (Ipomoea spp.), pigweed (Amaranthus retroflexus), velvetleaf (Abutilon theophrasti), wheat (Triticum aestivum), and corn (Zea mays) were planted into a blend of loam soil and sand and treated preemergence with a directed soil spray using test chemicals formulated in a non-phytotoxic solvent mixture which included a surfactant.
as §1

[4] = system: ragweed (common ragweed, Ambrosia elatior); assay: as above
From the text: as §2, §1

[5] = system: barnyardgrass (Echinochloa crus-galli); assay: as above
From the text: as §2, §1

[6] = system: ryegrass, Italian (Italian ryegrass, Lolium multiflorum); assay: as above
From the text: as §2, §1

[7] = system: wheat (Triticum aestivum); assay: as above; details: Postemergence; for Plant response rating, Wheat: 125 g ai/ha, 0 to 100 scale where 0 is no effect and 100 is complete control; for Wheat plant response rating: 500 g ai/ha, 0 to 100 scale, 0 is no effect, 100 is complete control
From the text: as §2, §1

[8] = system: corn (Zea mays); assay: as above; details: Postemergence; for Plant response rating, Corn: 125 g ai/ha, 0 to 100 scale where 0 is no effect and 100 is complete control; for Corn plant response rating: 500 g ai/ha, 0 to 100 scale, 0 is no effect, 100 is complete control
From the text: as §2, §1

[9] = system: pigweed (Amaranthus retroflexus); assay: as above
From the text: as §2, §1

[10] = system: foxtail, giant (giant foxtail, Setaria faberii); assay: as above
From the text: as §2, §1

[11] = Postemergence, 125 g ai/ha, 0 to 100 scale where 0 is no effect and 100 is complete control
[12] = Postemergence, 500 g ai/ha, 0 to 100 scale, 0 is no effect, 100 is complete control
[13] = Preemergence, 125 g ai/ha, 0 to 100 scale where 0 is no effect and 100 is complete control
[14] = Preemergence, 500 g ai/ha, 0 to 100 scale, 0 no effect, 100 complete control
[15] = Preemergence, 500 g ai/ha, 0 to 100 scale where 0 is no effect and 100 is complete control

With `CCc1ccc2ccccc2c1-c1c(OC(=O)OC(C)C)c(C)nn(C)c1=O` [Compound 39] the “Plant response rating, Blackgrass” value [1] was 30, the “Blackgrass plant response rating” value [1] was 70 and the “Plant response rating, Galium” value [2] was 90. The “Galium plant response rating” value [2] was 100, the “Plant response rating, Kochia” value [3, 11] was 30 and the “Kochia plant response rating” value [3, 12] was 30. For the same molecule, the “Kochia plant response rating” value [3, 13] was 0, the “Plant response rating, Kochia” value [3, 14] was 0 and the “Plant response rating, Ragweed” value [4, 11] was 50. The “Ragweed plant response rating” value [4, 12] was 90, the “Ragweed plant response rating” value [4, 13] was 10 and the “Plant response rating, Ragweed” value [4, 14] was 70. For the same molecule, the “Plant response rating, Barnyardgrass” value [5, 11] was 0, the “Barnyardgrass plant response rating” value [5, 12] was 10 and the “Barnyardgrass plant response rating” value [5, 13] was 0. For the same molecule, the “Plant response rating, Barnyardgrass” value [5, 14] was 10, the “Plant response rating, Ryegrass, Italian” value [6, 11] was 90 and the “Ryegrass, Italian plant response rating” value [6, 12] was 60. The “Ryegrass, Italian plant response rating” value [6, 13] was 40, the “Plant response rating, Ryegrass, Italian” value [6, 14] was 50 and the “Plant response rating, Wheat” value [7] was 0. The “Wheat plant response rating” value [7] was 10, the “Plant response rating, Corn” value [8] was 0 and the “Corn plant response rating” value [8] was 0. For the same molecule, the “Plant response rating, Pigweed” value [9, 11] was 50, the “Pigweed plant response rating” value [9, 12] was 80 and the “Pigweed plant response rating” value [9, 13] was 80. The “Plant response rating, Pigweed” value [9, 14] was 80, the “Plant response rating, Foxtail, Giant” value [10, 11] was 0 and the “Foxtail, Giant plant response rating” value [10, 12] was 60. For the same molecule, the “Foxtail, Giant plant response rating” value [10, 13] was 0 and the “Plant response rating, Foxtail, Giant” value [10, 14] was 60.

`Cc1ccc2ccccc2c1-c1c(OC(=O)C2CC2)c(C)nn(C)c1=O` [Compound 76] was tested, and the “Plant response rating, Blackgrass” value [1] was 0, the “Blackgrass plant response rating” value [1] was 10 and the “Plant response rating, Galium” value [2] was 70. The “Galium plant response rating” value [2] was 80, the “Plant response rating, Kochia” value [3, 11] was 20 and the “Kochia plant response rating” value [3, 12] was 40. The “Kochia plant response rating” value [3, 13] was 0, the “Plant response rating, Kochia” value [3, 15] was 0 and the “Plant response rating, Ragweed” value [4, 11] was 0. The “Ragweed plant response rating” value [4, 12] was 20, the “Ragweed plant response rating” value [4, 13] was 0 and the “Plant response rating, Ragweed” value [4, 15] was 50. For the same molecule, the “Plant response rating, Barnyardgrass” value [5, 11] was 0, the “Barnyardgrass plant response rating” value [5, 12] was 30 and the “Barnyardgrass plant response rating” value [5, 13] was 0. For the same molecule, the “Plant response rating, Barnyardgrass” value [5, 14] was 30, the “Plant response rating, Ryegrass, Italian” value [6, 11] was 40 and the “Ryegrass, Italian plant response rating” value [6, 12] was 80. The “Ryegrass, Italian plant response rating” value [6, 13] was 50, the “Plant response rating, Ryegrass, Italian” value [6, 15] was 70 and the “Plant response rating, Wheat” value [7] was 0. For the same molecule, the “Wheat plant response rating” value [7] was 0, the “Plant response rating, Corn” value [8] was 0 and the “Corn plant response rating” value [8] was 0. For the same molecule, the “Plant response rating, Pigweed” value [9, 11] was 10, the “Pigweed plant response rating” value [9, 12] was 20 and the “Pigweed plant response rating” value [9, 13] was 20. The “Plant response rating, Pigweed” value [9, 15] was 50, the “Plant response rating, Foxtail, Giant” value [10, 11] was 0 and the “Foxtail, Giant plant response rating” value [10, 12] was 20. The “Foxtail, Giant plant response rating” value [10, 13] was 0 and the “Plant response rating, Foxtail, Giant” value [10, 15] was 20.
